Test results: PMC7018972, “Novel and selective inactivators of Triosephosphate isomerase with anti-trematode activity” (Scientific Reports, 2020)
Entries after “also recorded” stand apart in the source; their conditions may differ. Marks after values point to notes of the source that are not given here.

Columns and labels:
[1] = system: adult form of F. hepatica; experiment: Ex-vivo assay in the adult form of F. hepatica; type: cell-based, Fasciola hepatica
Procedure: F. hepatica were collected from natural infections of cattle obtained from Casablanca slaughterhouse in Paysandú, Uruguay[49]. […] After flukes emptied their gut content (i.e. the gut was not dark anymore) they were transferred to 6 well plates (one fluke per well) with 2 mL of RPMI 1640 media with 200 U/mL Penicillin G sulfate, […] streptomycin sulfate, 500 ng/mL amphotericin B and 10 mM glucose at 37 °C. […] The antiparasitic efficacy was expressed as the percentage reduction of the number of flukes in the treated group compared with the control group.

[2] = system: murine macrophages and human peripheral blood mononuclear cells; set-up: method as in PMID 22536349; conditions: at 100 µM; cited from earlier work
S. mansoni somules = S. mansoni somules phenotypic screen in vitro; type: cell-based, Schistosoma mansoni; conditions: for SOMULES SEVERITY SCORE: Table 2S, 10 uM
S. mansoni adults = S. mansoni adults phenotypic screen ex vivo; type: cell-based, Schistosoma mansoni; conditions: for ADULTS SEVERITY SCORE: Table 2S, 5 uM
Description: The NMRI isolate of S. mansoni was maintained by passage through Biomphalaria glabrata snails and 3–5 week-old, female Golden Syrian hamsters (Charles River, San Diego, CA) as intermediate and definite hosts, respectively. A dose of 600 infective larvae (cercariae) was used to infect hamsters. The acquisition, preparation and in vitro maintenance of S. mansoni post-infective larvae (schistosomula or somules) and adults have been already described[5],[50],[51]. Vertebrate animal maintenance and handling at the University of California San Diego Animal Care Facility were in accordance with protocols approved by the university’s Institutional Animal Care and Use Committee (IACUC).
Phenotypic screens with 42-day-old, adult parasites were performed in 24-well plates (Costar cat.# 3526) containing the above medium and approximately five adult males and two females per well. Compound was added in a volume of up to 1 μL DMSO at a concentration of 5 µM (0.05% DMSO final). Assay plates were incubated at 37 °C in a 5% CO2 environment. Parasite phenotypes were recorded at 4, 8 and 24 h using a Zeiss Axiovert 40 C.
Schistosome phenotypic responses were recorded employing a series of ‘descriptors,’ such as rounding, degeneration, overactivity, loss of translucency and changes in motility, as described previously[5],[50],[51],[53]. To allow for comparisons of compound activity, each descriptor was awarded a value of 1 and these were added up to a maximum ‘severity score’ of 4. Evidence of degeneracy or death was awarded the maximum score of 4. Scores were averaged across duplicate wells for each compound (see details in the supporting information).

[3] = Acute oral toxicity (up-and-down); type: in vivo; conditions: mice
Procedure: Briefly, healthy young adult male BALB/c mice (30 days old, 25 to 30 g) were used in this study. […] The animal was fasted, maintained, and observed for 14 days according to the OECD guidelines. If the mouse survived for the first 48 h, another animal received the same dose. If this was repeated, a third animal was dosed with 2,000 mg/kg and also observed for 14 days. The experiment ends at 14 days post-administration, if there are no signs of toxicity, the (LD50) is the administered dose, if not, the software AOT AOT425 Stat program recommendation was followed. […] In parallel, sodium oleate was dissolved in phosphate buffer and left in an orbital shaker for 12 h at room temperature. The former was then added to the evaporated residue, and the mixture was homogenized and placed in an ultrasonic bath at full power for 30 min. The sample was kept at room temperature until use.

Cc1ccc(-c2nsc(S(=O)(=O)c3ccc(C)cc3)n2)cc1 [Compound 187]
effect on adult F. hepatica in words ([1]; after 24 h, 10 µM): death of all the parasites
effect on adult F. hepatica in words ([1]; first 4 h at 10 µM): parasites were affected
toxicity in words [2]: non-toxic
S. mansoni somules severity score (S. mansoni somules; Table 2, 24 h, score 0 to maximum 4): 4 (24 h)^##
SOMULES SEVERITY SCORE (S. mansoni somules; 24 h): 4
SOMULES SEVERITY SCORE (S. mansoni somules; 48 h): 4
SOMULES SEVERITY SCORE (S. mansoni somules; 3d): 4
effect on S. mansoni somules in words (S. mansoni somules; in the first 24 h): lethal to somules
effect on S. mansoni adults in words (S. mansoni adults; 24 h, 5 µM): decreased the motility of adults and the ability of their oral and ventral suckers to adhere; also recorded: decreased motility and loss of their ventral sucker adherence to the plate floor
ADULTS SEVERITY SCORE (S. mansoni adults; 4 h): 0
ADULTS SEVERITY SCORE (S. mansoni adults; 8 h): 0
ADULTS SEVERITY SCORE (S. mansoni adults; 24 h): 2
acute oral toxicity in words [3]: low toxicity
LD50 ([3]; up-and-down, 14 days): ≥ 2000 mg/kg body weight
